{
  "source": "patent US20050239844A1",
  "about": "“Composition fo preventing secretion of immunoglobulin e-dependent histamine releasing factor” (KYUNG-LIM LEE, priority 2002, published 2005)",
  "format_in_all_cases": "in vivo",
  "key": {"SD mice": {"system": "SD mice", "assay": "Anaphylaxis reaction caused by C48/80: mortality", "settings": "pantoprazole 10 mg/kg tail vein 30 minutes before C48/80 10 mg/kg tail vein; survival for one hour", "protocol": "SD mice weighing 200-220 g were divided into three groups consisting of a negative control group, a positive control group and a test group, each group consisting of eight animals.\n30 minutes after this pretreatment, the negative control group was injected with a phosphate buffer saline through the tail vein, the positive control group and the test group were injected with 10 mg/kg of C48/80 through the tail vein. After the injection, the number of individuals died of anaphylaxis reaction caused by C48/80 was observed. The standard of death and survival was determined by whether or not the animals survive for one hour after C48/80 administration."}, "BALBc male mice [1]": {"system": "BALBc male mice", "assay": "Ovalbumin-induced allergic rhinitis: eosinophil number in nasal mucosa (histology)", "settings": "under mucosa of anterior inferior turbinate, 400× magnification", "protocol": "3-week-old BALBc male mice weighing 15-25 g were divided into four groups each comprising 6 or 7 animals, and then bred in a specific pathogen-free (SPF) environment for 35 days. In order to induce allergic rhinitis, 10 μg of ovalbumin (grade V, Sigma Chemical Co., Phillipsberg, N.Y.) and 1 mg of aluminum hydroxide (Al(OH)3) gel were mixed with 0.3 ml phosphate buffered saline for at least 30 minutes to prepare an ovalbumin mixture. 0.1 ml of the mixture was injected into the abdominal cavity of the mice, and each at 5, 14 and 21 days later, injected once more into the abdominal cavity. At one week after the final injection into the abdominal cavity (28 days later), 30 μl phosphate buffered saline or a mixture of 100 μg ovalbumin with 30 μl phosphate buffered saline was administered into the nasal cavity using a micropipette. […] The administration of ovalalbumin into the nasal cavity and the pretreatment with the drugs before this administration were performed for 7 days, one time a day, and the next day after the administration for 7 days, the mice of all the groups was euthanized by inhalation with carbonic acid gas. […] The measured results were statistically analyzed by the Mann-Whitney U-test, using SPSS for Windows version 10 (SPSS Inc., Chicago), and were determined to be statistically significant at p<0.05."}, "BALBc male mice [2]": {"system": "BALBc male mice", "assay": "Ovalbumin-induced allergic rhinitis: symptom score", "settings": "7 days, sneezing and nose scratching counted for 15 minutes", "protocol": "3-week-old BALBc male mice weighing 15-25 g were divided into four groups each comprising 6 or 7 animals, and then bred in a specific pathogen-free (SPF) environment for 35 days. In order to induce allergic rhinitis, 10 μg of ovalbumin (grade V, Sigma Chemical Co., Phillipsberg, N.Y.) and 1 mg of aluminum hydroxide (Al(OH)3) gel were mixed with 0.3 ml phosphate buffered saline for at least 30 minutes to prepare an ovalbumin mixture. 0.1 ml of the mixture was injected into the abdominal cavity of the mice, and each at 5, 14 and 21 days later, injected once more into the abdominal cavity. At one week after the final injection into the abdominal cavity (28 days later), 30 μl phosphate buffered saline or a mixture of 100 μg ovalbumin with 30 μl phosphate buffered saline was administered into the nasal cavity using a micropipette. […] Then, in each mouse, the number of expression of characteristic symptoms of allergic rhinitis, i.e., the number of expression of symptoms, such as sneezing and the action of scratching the nose, was measured for 15 minutes after a given period, and their sum was recorded as a symptom score. The symptom score was recorded as the mean of scores measured by two observers, and scores having at least 30% difference between the two observers were excluded."}},
  "data": [
    {"molecule": "COc1ccnc(C[S+]([O-])c2nc3ccc(OC(F)F)cc3[nH]2)c1OC", "note": "(centres unmarked) [Inventive composition, pantoprazole]", "values": [
      {"measurement": "Mortality (number of dead individuals/number of total individuals)", "setting": "SD mice", "result": "4/8"},
      {"measurement": "eosinophil number (row printed as Symptom score), Mean", "setting": "BALBc male mice [1]; pantoprazole 10 mg/kg", "result": 5.57},
      {"measurement": "eosinophil number (row printed as Symptom score), Mean", "setting": "BALBc male mice [1]; pantoprazole 100 mg/kg", "result": 4.29},
      {"measurement": "Symptom score, Mean", "setting": "BALBc male mice [2]; pantoprazole 10 mg/kg into abdominal cavity 30 minutes before nasal ovalbumin", "result": 27.29},
      {"measurement": "Symptom score, Mean", "setting": "BALBc male mice [2]; pantoprazole 100 mg/kg into abdominal cavity 30 minutes before nasal ovalbumin", "result": 48.00}
    ]}
  ]
}
